# Reference: ChEMBL document CHEMBL1201862, “PubChem BioAssay data set” (2004)
# Activity calls are given as the source filed them.
# Assays:
# Streptococcus = test: Group A Streptococcus viability loss, dose response, counter-screen for streptokinase expression inhibitor project, luminescence, BacTiterGlo (AID 1915); format: functional, organism-based;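 further: potency for reduction of bacterial viability or growth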
# [1] = target: T1, Tyrosine-protein phosphatase non-receptor type 22 (Homo sapiens, UniProt Q9Y2R2); format: functional
# T1 sequence (Q9Y2R2 whole entry): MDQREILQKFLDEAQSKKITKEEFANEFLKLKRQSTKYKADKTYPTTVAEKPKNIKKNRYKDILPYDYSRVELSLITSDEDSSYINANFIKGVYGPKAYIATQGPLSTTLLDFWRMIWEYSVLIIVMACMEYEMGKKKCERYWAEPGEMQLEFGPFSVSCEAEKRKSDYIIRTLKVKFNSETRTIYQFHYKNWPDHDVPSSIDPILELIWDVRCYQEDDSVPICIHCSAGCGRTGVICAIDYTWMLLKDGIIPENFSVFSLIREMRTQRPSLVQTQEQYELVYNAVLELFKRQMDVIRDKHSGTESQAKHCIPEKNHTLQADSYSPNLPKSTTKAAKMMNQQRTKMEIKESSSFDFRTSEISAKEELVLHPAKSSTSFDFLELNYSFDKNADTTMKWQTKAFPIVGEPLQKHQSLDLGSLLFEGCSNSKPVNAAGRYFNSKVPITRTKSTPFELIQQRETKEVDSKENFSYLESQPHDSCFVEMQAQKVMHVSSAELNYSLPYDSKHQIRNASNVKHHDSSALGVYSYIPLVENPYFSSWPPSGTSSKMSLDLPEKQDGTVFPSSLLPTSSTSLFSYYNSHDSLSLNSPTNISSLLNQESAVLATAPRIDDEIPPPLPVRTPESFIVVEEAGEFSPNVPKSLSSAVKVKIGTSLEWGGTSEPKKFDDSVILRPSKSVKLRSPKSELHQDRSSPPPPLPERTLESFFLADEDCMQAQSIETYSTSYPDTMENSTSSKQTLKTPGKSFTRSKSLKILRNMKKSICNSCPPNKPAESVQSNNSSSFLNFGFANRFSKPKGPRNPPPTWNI
# [2] = target: T1, Tyrosine-protein phosphatase non-receptor type 22; format: functional; remark: listed apart in the source
# [3] = target: Probable nicotinate-nucleotide adenylyltransferase (Staphylococcus aureus (strain N315), UniProt P65502); format: functional, Staphylococcus aureus subsp. aureus N315;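 further: confirmatory retest of primary uHTS inhibitor hits against NadD over a range of doses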
# Sequence of Probable nicotinate-nucleotide adenylyltransferase (P65502 whole entry): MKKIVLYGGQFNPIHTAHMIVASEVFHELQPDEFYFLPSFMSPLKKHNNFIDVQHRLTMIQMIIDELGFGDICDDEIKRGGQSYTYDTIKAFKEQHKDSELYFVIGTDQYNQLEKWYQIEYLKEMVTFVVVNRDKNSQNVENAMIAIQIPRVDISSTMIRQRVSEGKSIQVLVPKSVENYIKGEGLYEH
# [4] = target: Small ubiquitin-related modifier 1 (Homo sapiens, UniProt P63165); test: inhibitors of SUMO1 partner interactions, dose response, biochemical, FRET (AID 624383); format: functional; details: read-out: IC50_Mean
# Sequence of Small ubiquitin-related modifier 1 (P63165 whole entry): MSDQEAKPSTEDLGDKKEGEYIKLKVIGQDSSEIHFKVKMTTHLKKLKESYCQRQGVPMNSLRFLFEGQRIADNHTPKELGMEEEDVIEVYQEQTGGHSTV
# [5] = target: T2, RNA-editing ligase 1, mitochondrial (Trypanosoma brucei brucei, UniProt P86926); test: TbREL1 ligase inhibitors, dose response, biochemical, fluorescence, Trypanosoma brucei (AID 1117295); format: functional
# T2 sequence (P86926 whole entry): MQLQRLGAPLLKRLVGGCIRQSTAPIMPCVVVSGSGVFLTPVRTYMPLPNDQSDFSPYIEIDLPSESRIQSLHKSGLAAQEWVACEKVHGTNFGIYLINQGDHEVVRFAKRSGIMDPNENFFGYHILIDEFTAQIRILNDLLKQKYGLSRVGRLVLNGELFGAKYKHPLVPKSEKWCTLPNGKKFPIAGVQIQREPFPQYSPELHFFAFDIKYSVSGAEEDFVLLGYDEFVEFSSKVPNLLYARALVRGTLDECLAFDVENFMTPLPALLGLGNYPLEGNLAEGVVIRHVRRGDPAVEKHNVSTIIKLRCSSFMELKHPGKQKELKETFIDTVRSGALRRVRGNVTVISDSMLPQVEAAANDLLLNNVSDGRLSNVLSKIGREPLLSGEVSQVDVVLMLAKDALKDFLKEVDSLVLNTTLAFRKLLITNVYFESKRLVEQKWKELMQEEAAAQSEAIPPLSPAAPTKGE
# Estrogen receptor beta = Estrogen receptor beta (Homo sapiens, UniProt Q92731);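 further: recombinant ER-beta bound to coactivator SRC1 peptide in presence of estradiol agonist; inhibitors block coactivator peptide binding and lower the FRET signal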
# Sequence of Estrogen receptor beta (Q92731 whole entry): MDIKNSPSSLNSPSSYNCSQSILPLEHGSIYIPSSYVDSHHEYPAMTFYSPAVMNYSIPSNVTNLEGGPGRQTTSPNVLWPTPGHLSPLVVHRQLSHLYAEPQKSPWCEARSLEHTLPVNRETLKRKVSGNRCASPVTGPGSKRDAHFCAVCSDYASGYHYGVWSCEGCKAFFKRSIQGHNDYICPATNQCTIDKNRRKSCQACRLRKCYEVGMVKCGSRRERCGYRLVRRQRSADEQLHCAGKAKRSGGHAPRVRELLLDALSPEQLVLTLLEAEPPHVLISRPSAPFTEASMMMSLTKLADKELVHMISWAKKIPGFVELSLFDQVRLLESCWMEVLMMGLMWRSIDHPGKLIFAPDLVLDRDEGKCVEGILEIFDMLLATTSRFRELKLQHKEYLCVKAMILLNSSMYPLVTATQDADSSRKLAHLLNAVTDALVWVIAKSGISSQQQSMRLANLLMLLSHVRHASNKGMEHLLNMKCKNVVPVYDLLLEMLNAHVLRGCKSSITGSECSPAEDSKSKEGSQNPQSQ
# [6] = growth suppression of PTEN-null colon cells, dose response, cell-based, HCT116 PTEN knockout (AID 1047); format: functional;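 further: HCT116 colon tumor cells with PTEN knocked out; cells exposed to compound for 60 hours before readout; potency for loss of cell viability measured by luminescence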
# [7] = target: T3, Mannose-6-phosphate isomerase (Homo sapiens, UniProt P34949); test: human PMI inhibitors, high substrate, primary screen, biochemical, fluorescence intensity, high mannose 6-phosphate (AID 1220)
# T3 sequence (P34949 whole entry): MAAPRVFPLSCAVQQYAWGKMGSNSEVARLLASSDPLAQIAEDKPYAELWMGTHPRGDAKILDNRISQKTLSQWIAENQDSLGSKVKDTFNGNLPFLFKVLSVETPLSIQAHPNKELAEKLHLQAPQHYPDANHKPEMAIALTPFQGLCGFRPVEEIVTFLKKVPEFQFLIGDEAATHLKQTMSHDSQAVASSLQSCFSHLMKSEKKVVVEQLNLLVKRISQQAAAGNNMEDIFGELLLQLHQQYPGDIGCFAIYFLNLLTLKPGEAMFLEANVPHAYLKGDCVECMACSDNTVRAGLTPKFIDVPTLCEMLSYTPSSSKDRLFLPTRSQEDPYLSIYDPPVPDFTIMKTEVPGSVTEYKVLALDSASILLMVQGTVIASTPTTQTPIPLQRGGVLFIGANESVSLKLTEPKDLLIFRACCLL
# [8] = target: T4, DNA repair and recombination protein RAD54-like (Homo sapiens, UniProt Q92698); test: inhibitors of human RAD54 branch migration, confirmation, biochemical, fluorescence, cherry-picked samples, dose series (AID 651657); format: functional
# T4 sequence (Q92698 whole entry): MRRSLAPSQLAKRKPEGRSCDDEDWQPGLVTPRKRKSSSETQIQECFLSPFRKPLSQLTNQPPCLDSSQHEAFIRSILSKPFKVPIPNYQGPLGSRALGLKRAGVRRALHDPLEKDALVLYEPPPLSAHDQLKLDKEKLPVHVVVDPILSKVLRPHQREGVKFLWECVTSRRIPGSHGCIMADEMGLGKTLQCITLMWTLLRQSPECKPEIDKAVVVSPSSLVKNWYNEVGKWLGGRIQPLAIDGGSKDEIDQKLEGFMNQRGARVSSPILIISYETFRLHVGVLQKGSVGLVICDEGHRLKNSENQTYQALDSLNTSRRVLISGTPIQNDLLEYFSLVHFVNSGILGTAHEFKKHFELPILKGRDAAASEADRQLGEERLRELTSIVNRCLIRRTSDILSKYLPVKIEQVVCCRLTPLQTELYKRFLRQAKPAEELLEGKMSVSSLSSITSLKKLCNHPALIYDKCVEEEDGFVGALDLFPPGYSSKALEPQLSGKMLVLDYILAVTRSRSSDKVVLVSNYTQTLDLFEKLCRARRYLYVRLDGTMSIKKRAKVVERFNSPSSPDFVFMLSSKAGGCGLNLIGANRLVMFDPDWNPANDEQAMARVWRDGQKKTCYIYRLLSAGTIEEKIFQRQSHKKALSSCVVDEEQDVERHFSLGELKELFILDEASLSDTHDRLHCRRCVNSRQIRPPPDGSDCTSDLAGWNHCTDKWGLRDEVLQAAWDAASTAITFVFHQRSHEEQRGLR
smiles,measurement,setting,value
CCN1/C(=C/c2ccc3cc(C)ccc3[n+]2CC)Sc2cc(C)c(C)cc21,EC50,Streptococcus,8.85 µM (active)
Nc1ccc2nc3c(O)nc(S)nc3nc2c1,IC50,[1],76.3 µM (active)
same,IC50,[2],> 79.4 µM (inactive)
same,IC50,[3],7.46 µM (active)
same,IC50,[4],17.5 µM (active)
same,IC50,[5],2.76 µM (active)
COc1ccc(C(=O)Nc2nc3c(s2)Cc2cc(OC)ccc2-3)cc1,IC50,Estrogen receptor beta,> 50 µM (not active)
Cc1oc2c(c1C(=O)c1ccccc1)C(=O)C(=O)c1ccccc1-2,EC50,[6],2.64 µM (active)
same,IC50,[7],> 50 µM (not active)
same,IC50,[5],10.3 µM (inactive)
CSc1ccc(C=NNc2ccc(S(=O)(=O)Nc3ccccc3C(=O)O)cc2[N+](=O)[O-])cc1,IC50,[4],50.8 µM (inactive)
O=C(O)COc1ccc(/C=N/NC(=O)c2ccc(-c3csc(Nc4ccc(Cl)cc4)n3)cc2)cc1,IC50,[1],< 1.24 µM (active)
same,IC50,[2],< 1.24 µM (active)
COc1cc(NCCCNC(C)C)c2nccc(C)c2c1,AC50,[8],49.6 µM (active)
CC(/C=C1\SC(=S)N(NS(=O)(=O)c2ccccc2)C1=O)=C\c1ccccc1,EC50,Streptococcus,> 150 µM (not active)
